Measurements published in patent US10947270B2, “Targeted prodrug cytosine deaminase fusion carrier and application thereof” (National Yang-Ming University, priority 2015, dated 2021).

Columns and labels:
[1] = test system: HUVEC cells; test: MTT cytotoxicity assay of yCD series protein combined with 5-FC; assay type: cell-based; conditions: Homo sapiens, 5-FU alone
Description: (§1) The cell viability was determined by MTT assay. The seeded HUVEC cells shown in FIG. 7A, the seeded U87MG cells shown in FIG. 7B and the 96 wells of seeded MCF-7 cells shown in FIG. 7C are respectively added with 500 nM RGD4C-yCD, yCD, RGD4C-yCD/UPRT and yCD/UPRT recombinant protein, after removing the recombinant protein not bound with the cells and washing the cells, add 5-FC with different concentrations and observe the cell killing effect. Cells of the control groups were only incubated with different concentrations of 5-FU or 5-FC without protein treatment.
(§2) In this experiment, the MTT assay is applied to measure cytotoxicity induced by RGD4C-yCD/5-FC and RGD4C-yCD/UPRT/5-FC of the targeted prodrug enzyme fusion protein. In 96-well plate of seeded cells is respectively added with recombinant proteins such as 500 nM RGD4C-yCD, yCD, RGD4C-yCD/UPRT and yCD/UPRT, and co-cultured at 37° C. for 2 hours. The recombinant proteins not bound with cells are discarded. The cells were washed, and then were treated with different concentrations of 5-FC for observing the effect of cytotoxicity. On the other hand, the cells only treated with different concentrations of 5-FC and 5-FU separately as the control group.

[2] = test system: U87MG cells; test: as above; assay type: cell-based; conditions: Homo sapiens, U-87 MG, 5-FU alone
Description: as §1, §2

[3] = test system: HUVEC cells; test: MTT cytotoxic test of EcCD series fusion protein (50 nM) coupled with 5-FC; assay type: cell-based, human; conditions: 5-FU alone
Description: (§3) Relative cell viability was measured by MTT assay. The 50 nM EcCD series fusion protein is applied to U87MG, HUVEC and MCF-7 cells at 37° C. for 2 hours, after washing the unbound protein with PBS.

[4] = test system: U87MG cells; test: as above; assay type: cell-based; conditions: Homo sapiens, U-87 MG, 5-FU alone, 72 hours
Description: as §3

[5] = test system: MCF-7 cells; test: as above; assay type: cell-based; conditions: Homo sapiens, MCF7, 5-FU alone, 72 hours
Description: as §3

[6] = test system: HUVEC and U87MG cells; test: TUNEL apoptosis assay of yCD series fusion protein combined with 5-FC; assay type: cell-based, human; conditions: 500 nM protein, 100 μM 5-FC or 5-FU, 72 hours
Description: FIGS. 9A-9D show the cell apoptosis assay of the yCD series fusion protein combined with 5-FC in HUVEC and U87MG cells. […] And then TUNEL assay kit was used to detect the cell apoptosis (red signal: DNA fragment detected by TUNEL assay kit; blue signal: Hoechst 33342 cell nuclear stain). Cells of the control groups were only incubated with different concentrations of 5-FU or 5-FC without protein treatment. […] (*P value<0.05; Calibration scale: 20 μm)
Previous literature pointed out that 5-FU can promote apoptosis by inhibiting the synthesis of cellular DNA. This experiment is performed on apoptosis analysis to evaluate whether the enzyme precursor treatment system of RGD4C-yCD/5-FC and RGD4C-yCD/UPRT/5-FC can kill the cells by apoptotic mechanism. HUVEC and U87MG cells are co-cultured with culture medium containing 500 nM RGD4C-yCD and RGD4C-yCD/UPRT protein for 2 hours at 37° C., remove and wash the unbound or endocytic proteins, add 100 μM 5-FC or 5-FU, after acting for 72 hours, the DNA fragment of the apoptosis is stained with fluorescence by TUNEL assay analysis set, and the apoptosis is observed by conjugated fluorescence microscope. […] Furtherly, TUNEL fluorescence signals are quantified by image analysis software MetaMorph. […]

[7] = test system: MCF-7 cells; test: MTT cytotoxicity assay of yCD series protein combined with 5-FC; assay type: cell-based, human
Description: as §1, §2

[8] = test system: HUVEC, U87MG and MCF-7 cells; test: MTT cytotoxicity assay of yCD series, statements for all three cells; assay type: cell-based, human; conditions: 5-FC alone
Description: as §1, §2

[9] = test system: U87MG, HUVEC and MCF-7 cells; test: MTT cytotoxic test of EcCD series, statements for several cells; assay type: cell-based, human; conditions: 5-FC alone
Description: as §3

[10] = parameters: species or system nude mice; conditions: mouse, in vivo
Description: The arrow is marked as a tumor.
In in-vitro cell experiment, the binding ability of ^111In-DTPA-RGD4C-yCD and the integrin αvβ3 receptor on the cell membrane has been verified. In order to know whether the drug can show its target effect in vivo, integrin αvβ3 is seeded subcutaneously in the right side of nude mice. After the high-expression U87MG tumor cells are grown to 100 mm^3, 60-70 μCi (3-3.5 μg) of ^111In-DTPA-yCD and ^111In-DTPA-RGD4C-yCD are injected directly into the tumor, the images are collected by microSPECT/CT after 1, 4, 24, 48 hours. It can be seen from the image (see FIG. 31) that the drug retention in the ^111In-DTPA-RGD4C-yCD group (orange arrow) is better than that in the ^111In-DTPA-yCD, and the target ligand RGD4C is missing. ^111In-DTPA-yCD enters the systemic blood circulation system within 1 hour and is metabolized by normal organs. From FIG. 31, it can be seen that the kidney is the main metabolic organ of these two drugs. […] After 24-48 hours, the amount of accumulation in the tumor is running out. On the contrary, ^111In-DTPA-RGD4C-yCD is bound with integrin αvβ3 on tumor cells, then the ratio of drug entering the systemic blood circulation is reduced, and the metabolic rate is slow.

[11] = assay type: physicochemical
Description: The radiochemical purity of ^111In-DTPA-yCD and ^111In-DTPA-RGD4C-yCD are greater than 95% after marking and purification. Both are stored in HEPES buffer liquid (4° C.) for 48 hours, and the radiochemical purity is still higher than 85% (see FIG. 26). Both are placed in fetal bovine serum (37° C.) to simulate their stability in vivo. After 48 hours, the radiochemical purity of both is about 80%. It is shown that radioactive metal indium-111 is stably chelated on DTPA.

[12] = test system: HUVEC cells; test: Competitive cell uptake with cRGDfk; assay type: cell-based, human; conditions: cRGDfk 1000-fold molar excess, 4 hours
Description: (§4) The uptake of ^111In-DTPA-yCD is low in the all three cell lines. […] The uptake amount of ^111In-DTPA-RGD4C-yCD by each cell strain is used as a control group, and analyzed by two sample t-test statistical methods, *P-value<0.05, **P-value<0.01, ***P-value<0.001, ****P-value<0.0001.
(§5) ^111In-DTPA-yCD and ^111In-DTPA-RGD4C-yCD (20 μCi/50 pmol/mL) are separately added to the 24-well plate of the seeded cells (2.5×10^5 cells/well) and cultured for 4 hours, and then the radioactivity of the cells and culture medium are separately measured, calculate the uptake amount of the drug by the cells (shown as % AD/10^6 cells).

[13] = test system: U87MG cells; test: Competitive cell uptake with cRGDfk; assay type: cell-based, human; conditions: cRGDfk 1000-fold molar excess, 4 hours
Description: as §4, §5

[14] = test system: MCF-7 cells; test: Competitive cell uptake with cRGDfk; assay type: cell-based, human; conditions: cRGDfk 1000-fold molar excess, 4 hours
Description: as §4, §5

[15] = test system: ES-2-luc cells; test: Competitive cell uptake with cRGDfk; assay type: cell-based; conditions: cRGDfk 1000-fold molar excess, 4 hours
[16] = parameters: species or system nude mice; conditions: mouse, in vivo; remark: listed apart in the source
Description: ES-2-luc tumor nude mice is intraperitoneally injected with 50 μCi (2.5 μg) ^111In-DTPA-yCD and ^111In-DTPA-RGD4C-yCD for 1, 4 and 24 hours, then organs are collected and their radioactivity is measured to obtain biodistribution, as shown in Table 19 and Table 20. […] In addition to the part accumulated in the tumor, another part of the drug is absorbed back into the blood circulation system by the peritoneal blood vessels. […] The pancreatic radioactivity of the two drugs is observed after 1 hour of injection. The pancreatic radioactivity of ^111In-DTPA-RGD4C-yCD (8.06±0.88% ID/g) is higher than that of ^111In-DTPA-yCD (3.91±0.36% ID/g), it is suspected that tumor cells invade the pancreas.

O=c1[nH]cc(F)c(=O)[nH]1 [5-FU, 5-fluorouracil]
IC50 [1]: 1.6 ± 0.2 µM | IC50 [2]: 1.6 ± 0.3 µM | IC50 ([3]; 72 hours): 6.2 ± 1.3 µM | IC50 ([3]; Homo sapiens, 72 h): 6.5 ± 1.3 µM | IC50 [4]: 6.5 ± 0.2 µM | IC50 [5]: 25.6 ± 0.3 µM | apoptosis (TUNEL, words) [6]: a large amount of apoptosis | IC50 ([7]; 5-FU alone): 2.2 ± 0.3 µM | IC50 ([7]; Homo sapiens, MCF7, 5-FU alone): 2.1 ± 0.3 µM

Nc1nc(=O)[nH]cc1F [5-FC, 5-fluorocytosine]
cytotoxic ability [8]: not significant cytotoxic ability | survival rate [9]: ~100%

B1: ^111In-DTPA-RGD4C-yCD: indium-111 labeled DTPA-RGD4C-yCD protein (conjugate)
chain: MACDCRGDCFCVTGGMASKWDQKGMDIAYEEAALGYKEGGVPIGGCLINNKDGSVLGRGHNMRFQKGSATLHGEISTLENCGRLEGKVYKDTTLYTTLSPCDMCTGAIIMYGIPRCVVGENVNFKSKGEKYLQTRGHEVVVVDDERCKKIMKQFIDERPQDWFEDIGELEHHHHHH
accumulation in the tumor [10]: considerable drug accumulation in the tumor | radiochemical purity after incubation [11]: about 80% | decrease of cell uptake by cRGDfk [12]: about 65% | decrease of cell uptake by cRGDfk [13]: ~55% | decrease of cell uptake by cRGDfk [14]: ~45% | decrease of cell uptake by cRGDfk [15]: about 70% | radioactivity in the peritoneal cavity reduced to (fraction of 1 hour value) [16]: ¼ | radioactivity in tumor higher than that of ^111In-DTPA-yCD [16]: approximately 3 times
